Results on 20 compounds are retold here after publication PMC9412104, “Biochemical and Structural Insights on the Poplar Tau Glutathione Transferase GSTU19 and 20 Paralogs Binding Flavonoids” (Frontiers in Molecular Biosciences, 2022).

Experiment [1] deals with PtGSTU19Y160A (Populus trichocarpa, UniProt B9HKX9, Y160A). As to the kind of experiment: GSH-conjugation activity toward model substrates, variant. The conditions noted are these: PtGSTU19 Y160A, fixed saturating GSH, mean ± S.D.; for k cat: n = 3; for Km: n = 3, read-out: apparent KM. In kind it is biochemical.
Chain of PtGSTU19Y160A (B9HKX9 2-219 Y160A): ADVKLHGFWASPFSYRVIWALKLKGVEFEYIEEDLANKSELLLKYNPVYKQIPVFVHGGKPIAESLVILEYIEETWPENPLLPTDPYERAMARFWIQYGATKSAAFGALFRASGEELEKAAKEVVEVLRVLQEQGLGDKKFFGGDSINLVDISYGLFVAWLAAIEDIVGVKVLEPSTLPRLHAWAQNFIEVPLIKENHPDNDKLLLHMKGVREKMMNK
Procedure: (§2) Peroxidase activity toward hydroperoxides was measured using an NADPH coupled spectrophotometric assay ([Pégeot et al., 2014]).
(§3) The measured velocities were corrected by subtracting the rate of the spontaneous nonenzymatic reaction, and three independent experiments were performed at each substrate concentration.
Experiment [2] has as its target T1, PtGSTU19 (Populus trichocarpa, UniProt B9HKX9). As to the kind of experiment: GSH-conjugation activity toward model substrates. To be noted: for Catalytic efficiency: PtGSTU19; for k cat / k cat/K m: PtGSTU19, 25°C, fixed 1 mM GSH (0.7 mM with HNE), mean ± S.D., n = 3.
The target in experiment [3] is PtGSTU19Y160C (Populus trichocarpa, UniProt B9HKX9, Y160C). As to the kind of experiment: GSH-conjugation activity toward model substrates, variant. Format: biochemical. To be noted: PtGSTU19 Y160C, fixed saturating GSH, mean ± S.D.; for k cat: n = 3; for Km: n = 3, read-out: apparent KM.
Chain of PtGSTU19Y160C (B9HKX9 2-219 Y160C): as the sequence (B9HKX9 2-219 Y160A) above, with A159C counted along it
Procedure: as §2, §3
In experiment [4] the target is PtGSTU20C160Y (Populus trichocarpa, UniProt D2X9R3, C160Y). The description is as above. In kind it is biochemical. To be noted: PtGSTU19 C160Y in Table S4, fixed saturating GSH, mean ± S.D.; for k cat: n = 3; for Km: n = 3, read-out: apparent KM.
Chain of PtGSTU20C160Y (D2X9R3 2-219 C160Y): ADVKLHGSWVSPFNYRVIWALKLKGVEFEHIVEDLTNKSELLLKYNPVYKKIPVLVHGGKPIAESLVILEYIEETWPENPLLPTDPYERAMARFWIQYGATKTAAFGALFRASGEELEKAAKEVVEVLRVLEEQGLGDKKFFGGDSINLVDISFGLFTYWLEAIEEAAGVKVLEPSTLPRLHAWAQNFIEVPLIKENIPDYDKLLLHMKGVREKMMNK
Procedure: as §2, §3
Experiment [5] addresses T2, PtGSTU20 (Populus trichocarpa, UniProt D2X9R3). As to the kind of experiment: GSH-conjugation activity toward model substrates.
Experiment [6] addresses PtGSTU19Y160F (Populus trichocarpa, UniProt B9HKX9, Y160F). As to the kind of experiment: GSH-conjugation activity toward model substrates, variant. In kind it is biochemical. To be noted: for k cat / Km: PtGSTU19 Y160F, GSH-conjugation, fixed saturating GSH, mean ± S.D., n = 3; for Km: read-out: apparent KM.
Procedure: as §2, §3
Experiment [7] addresses T1, PtGSTU19. Put plainly: Competition (inhibition) assay of GSH-conjugation with PITC as substrate. Format: biochemical.
Procedure: (§4) The measured velocities were corrected by subtracting the rate of the spontaneous nonenzymatic reaction, and three independent experiments were performed at each substrate concentration. The kinetic parameters (k cat and apparent K m) and the inhibition constants (K i) were, respectively, obtained by fitting the data to the nonlinear regression Michaelis–Menten model (kinetic assays) and to the mixed inhibition model (inhibition assays) in GraphPad Prism 8 software ([Copeland, 2013]).
For experiment [8], the target named is T2, PtGSTU20. As to the kind of experiment: Thermal shift assay (SYPRO orange). In kind it is binding. Here is the method:
(§1) Assays were performed in a mixture (final volume of 25 µL) containing 30 mM Tris-HCl pH 8.0, 100 µM of chemical compounds (diluted in 8% DMSO) originating from a chemical library (Supplementary Tables S2, S3), 20 µM of PtGSTU19 or 20, and 5X SYPRO orange. […] The denaturation temperature, which corresponds to the temperature at which 50% of the total fluorescence is measured, was determined by the nonlinear regression Boltzmann sigmoidal model in GraphPad Prism 8 software for data obtained in the presence of potential ligands. This temperature was compared with a reference assay in which organic compounds were replaced by an equivalent DMSO concentration.

The target of experiment [9] is T1, PtGSTU19. Put plainly: Thermal shift assay (SYPRO orange). Format: binding. The protocol:
as §1

Experiment [10] has as its target T2, PtGSTU20. Put plainly: Competition (inhibition) assay of GSH-conjugation with PITC as substrate. Format: biochemical.
Procedure: as §4
Experiment [11] deals with T2, PtGSTU20. Put plainly: Peroxidase activity, NADPH coupled spectrophotometric assay. Format: biochemical. To be noted: enzyme concentration increased up to 10 µM.
Procedure: as §2, §4
For experiment [12], the target named is T1, PtGSTU19. The description is as above. Format: biochemical. To be noted: enzyme concentration increased up to 10 µM.
Procedure: as §2, §4
Where [13] appears, read: 25°C, fixed 1 mM GSH (0.7 mM with HNE), mean ± S.D., n = 3.
The mark [14] stands for this setting: read-out: ΔTd (denaturation temperature difference), PtGSTU20 20 µM, compound 100 µM, vs DMSO reference, flavonoid set (Table S3, Figure 4).
Where [15] appears, read: read-out: ΔTd (denaturation temperature difference), PtGSTU20 apo form 20 µM, compound 100 µM, vs DMSO reference, first chemical library screen (Table S2, Figure S9).
Setting [16] is: read-out: ΔTd (denaturation temperature difference), PtGSTU19 20 µM, compound 100 µM, vs DMSO reference, flavonoid set (Table S3, Figure 4).
The mark [17] stands for this setting: read-out: ΔTd (denaturation temperature difference), PtGSTU19 apo form 20 µM, compound 100 µM, vs DMSO reference, first chemical library screen (Table S2, Figure S9).
Setting [18] is: read-out: ΔTd (denaturation temperature difference).
The mark [19] stands for this setting: PtGSTU20 apo form 20 µM, compound 100 µM, vs DMSO reference, first chemical library screen (Table S2, Figure S9).
The mark [20] stands for this setting: PtGSTU19 apo form 20 µM, compound 100 µM, vs DMSO reference, first chemical library screen (Table S2, Figure S9).
Where [21] appears, read: PtGSTU20 20 µM, compound 100 µM, vs DMSO reference, flavonoid set (Table S3, Figure 4), read-out: ΔTd (denaturation temperature difference).
Setting [22] is: PtGSTU19 20 µM, compound 100 µM, vs DMSO reference, flavonoid set (Table S3, Figure 4), read-out: ΔTd (denaturation temperature difference).

Read-outs that look alike come from different tables or passages of the source.

T1 sequence (B9HKX9 entry or part of it): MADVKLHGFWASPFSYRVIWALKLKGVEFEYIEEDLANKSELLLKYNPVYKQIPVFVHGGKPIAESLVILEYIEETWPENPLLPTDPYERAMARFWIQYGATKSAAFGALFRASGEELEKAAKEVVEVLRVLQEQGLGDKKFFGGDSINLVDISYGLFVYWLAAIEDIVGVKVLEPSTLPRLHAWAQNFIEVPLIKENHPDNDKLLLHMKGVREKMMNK
Chain of PtGSTU19Y160F (B9HKX9 2-219 Y160F): as the sequence (B9HKX9 2-219 Y160A) above, with A159F counted along it
T2 sequence (D2X9R3 entry or part of it): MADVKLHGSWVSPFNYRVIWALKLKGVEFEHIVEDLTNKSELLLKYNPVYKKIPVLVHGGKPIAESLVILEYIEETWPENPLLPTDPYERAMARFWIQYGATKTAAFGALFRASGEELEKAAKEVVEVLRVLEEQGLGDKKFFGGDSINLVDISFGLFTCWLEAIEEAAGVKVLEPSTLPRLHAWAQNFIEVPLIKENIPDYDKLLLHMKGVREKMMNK

With `S=C=NCc1ccccc1` [BITC, benzyl-isothiocyanate], the k cat in experiment [1] was determined as 6.5 ± 0.2 s⁻¹; in [2], 7.0 ± 0.1 s⁻¹; in experiment [3], 6.7 ± 0.1 s⁻¹; in experiment [4] it was 4.9 ± 0.1 s⁻¹; in experiment [5] (setting [13]) it was 10.4 ± 0.3 s⁻¹; in [6], 8.3 ± 0.2 s⁻¹. Besides, the Km in experiment [1] was found to be 30.6 ± 4.5 µM; in [3], 54.1 ± 3.3 µM; in experiment [4], 71.4 ± 9.6 µM; in [6], 36.3 ± 3.3 µM. In [2], this compound came in with a Catalytic efficiency of 132200 M⁻¹ s⁻¹.
As for `O=c1cc(-c2ccccc2)oc2cc(O)c(O)c(O)c12` [Baicalein], the Ki in experiment [7] was determined as 35.2 ± 2.8 µM; in experiment [10] it was 7.1 ± 0.6 µM. Moreover, the ΔTm at 100 µM in experiment [8] (setting [14]) is 3.4 °C; in [8] (setting [15]), more than 4 °C; in experiment [9] (setting [16]), 0.73 ± 0.2 °C; in [9] (setting [17]), more than 4 °C.
Take `O=[N+]([O-])c1ccc(Cl)c([N+](=O)[O-])c1` [CDNB]: the k cat in experiment [1] was found to be 7.2 ± 0.9 s⁻¹; in experiment [2] it was 28.8 ± 2.2 s⁻¹; in [3] it was 14.0 ± 1.2 s⁻¹; in [4], 0.59 ± 0.03 s⁻¹; in experiment [5] (setting [13]) it was 0.59 ± 0.03 s⁻¹; in [6], 17.3 ± 1.0 s⁻¹. Further, the Km in experiment [1] turned out to be 7040 ± 1380 µM; in experiment [2] (read-out: apparent K m, PtGSTU19, 25°C, fixed 1 mM GSH (0.7 mM with HNE), mean ± S.D., n = 3), 3390 ± 502 µM; in experiment [3], 4160 ± 620 µM; in experiment [4], 2250 ± 229 µM; in experiment [5] (read-out: apparent K m, 25°C, fixed 1 mM GSH (0.7 mM with HNE), mean ± S.D., n = 3), 1780 ± 193 µM; in [6] it was 3670 ± 390 µM. Moreover, the entries for the “k cat/K m” value in experiment [2] and in experiment [5] (setting [13]) were 8.9 ± 0.8 10^3 M^-1s^-1 and 0.33 ± 0.01 10^3 M^-1s^-1, respectively. Also, in experiment [2] (PtGSTU19 higher than PtGSTU20), the “Catalytic efficiency of PtGSTU19 relative to PtGSTU20” value is recorded as 30 times. In addition, the Catalytic efficiency in experiment [5] was 300 M⁻¹ s⁻¹.
For the compound `O=c1cc(-c2ccccc2)oc2cc(O)cc(O)c12` [Chrysin], the figures for the ΔTm at 100 µM in experiment [8] (setting [18]) and in [9] (setting [18]) were 2.07 °C and -0.05 ± 0.07 °C, respectively.
For the compound `N[C@@H](CCC(=O)N[C@@H](CS)C(=O)NCC(=O)O)C(=O)O` [GSH, glutathione], the “ΔTd (denaturation temperature difference)” value in experiment [8] (setting [19]) was “little or no change”. Moreover, the “ΔTd (denaturation temperature difference)” value in experiment [9] (setting [20]) is recorded as “little or no change”. Also, in [6], the “apparent affinity for glutathione, reduced by a factor” value was determined as 4 and the “variation of apparent affinity for glutathione” value is “no variation”.
On to `O=c1c(O)c(-c2ccccc2)oc2cc(O)cc(O)c12` [Galangin], for which the values for the Ki in [7] (read-out: K i) and in [10] (read-out: K i) were 157 ± 28.7 µM and 43.8 ± 0.6 µM, respectively. Further, the “ΔTd (denaturation temperature difference)” value in experiment [8] (PtGSTU20 20 µM, compound 100 µM, vs DMSO reference, flavonoid set (Table S3, Figure 4), 100 µM) was 5.89 ± 0.64 °C. The ΔTm at 100 µM in [8] (setting [21]) was 7.42 °C; in experiment [9] (setting [22]) it was 1.59 ± 0.29 °C.
`OO` [H2O2, hydrogen peroxide]: the “Peroxidase activity (active on the peroxide)” value in experiment [11] and in experiment [12] was “not” each time.
The compound `CCCCCC(O)C=CC=O` (centres unmarked) [HNE, 4-hydroxy-2-nonenal] had a Catalytic efficiency in [2] of 2000 M⁻¹ s⁻¹.
For the compound `O=c1c(O)c(-c2ccc(O)cc2O)oc2cc(O)cc(O)c12` [Morin], the Ki turned out to be 72.9 ± 5.3 µM in experiment [7] and 16 ± 0.9 µM in experiment [10]. In addition, the ΔTm at 100 µM in [8] (setting [14]) is 4.36 °C; in [8] (setting [15]) it was more than 4 °C; in experiment [9] (setting [16]) it was 0.37 ± 0.16 °C; in [9] (setting [17]), more than 4 °C.
Regarding `S=C=NCCc1ccccc1` [PITC, phenethyl-isothiocyanate], the k cat was determined as 2.3 ± 0.03 s⁻¹ in experiment [1]; 3.8 ± 0.1 s⁻¹ in experiment [2]; 3.05 ± 0.05 s⁻¹ in experiment [3]; 2.03 ± 0.08 s⁻¹ in experiment [4]; 5.1 ± 0.1 s⁻¹ in experiment [5] (setting [13]); 3.9 ± 0.07 s⁻¹ in experiment [6]. Also, the Km came out at 49.2 ± 2.6 µM in experiment [1], 40.3 ± 3 µM in [3], 58.3 ± 9.2 µM in [4] and 31.1 ± 2.5 µM in [6]. This compound showed a Catalytic efficiency in experiment [5] of 88900 M⁻¹ s⁻¹.
With `CCCC(=O)Oc1ccc([N+](=O)[O-])cc1` [PNP-butyrate, 4-nitrophenyl-butyrate], the Catalytic efficiency in experiment [2] and in experiment [5] was 100 M⁻¹ s⁻¹ throughout. The results for the k cat in experiment [2] and in experiment [5] (setting [13]) were 0.040 ± 0.001 s⁻¹ and 0.020 ± 0.001 s⁻¹, respectively. Further, in [2], the “k cat/K m” value is recorded as 0.100 ± 0.002 10^3 M^-1s^-1.
With `O=C1C[C@@H](c2ccccc2)Oc2cc(O)cc(O)c21` [Pinocembrin], the Ki in experiment [7] (read-out: K i) came out at 152 ± 13.5 µM; in experiment [10] (read-out: K i), 61.2 ± 10.5 µM. Besides, the ΔTm at 100 µM in experiment [8] (setting [21]) was 1.68 °C; in [9] (setting [22]), -0.01 ± 0.12 °C.
For `O=c1cc(-c2ccc(O)cc2)oc2cc(O)cc(O)c12` [apigenin], in [8] (setting [18]), the ΔTm at 100 µM worked out at 1.41 °C.
Take `O=C(/C=C/c1ccc(O)c(O)c1)c1ccc(O)cc1O` [butein]: the ΔTm at 100 µM in experiment [8] (setting [21]) amounted to 2.32 °C.
On the same count and under the same terms, as for `O=C(CCc1ccc(O)cc1)c1c(O)cc(O)cc1O` [phloretin], the figure is 3.11 °C.
Regarding `O=c1c(O)c(-c2ccc(O)c(O)c2)oc2cc(O)cc(O)c12` [quercetin], the ΔTm at 100 µM in experiment [8] (setting [18]) and in [9] (setting [18]) was more than 4 °C each time.
On to `CC(C)(C)OO` [t-BOOH, tert-butyl hydroperoxide], for which the “Peroxidase activity (active on the peroxide)” value in [11] and in experiment [12] was “not” each time.
For `COc1c(O)cc(O)c2c(=O)cc(-c3ccccc3)oc12` [wogonin], the ΔTm at 100 µM in [8] (setting [14]) was determined as 5.17 °C.
On to “glutathionyl-phenylacetophenone [GS-PAP]”, for which the Ki in experiment [7] (PtGSTU19, GSH-conjugating reaction with PITC as substrate, mixed model inhibition, ND = no inhibition was detected, read-out: K i) was found to be 2.3 ± 0.8 µM; in experiment [10] (PtGSTU20, GSH-conjugating reaction with PITC as substrate, mixed model inhibition, ND = no inhibition was detected, read-out: K i) it was 5.1 ± 2.1 µM. Moreover, the “ΔTd (denaturation temperature difference)” value in [8] (PtGSTU20 20 µM, compound 100 µM, vs DMSO reference, flavonoid set (Table S3, Figure 4)) was 6.48 ± 0.17 °C; in experiment [8] (setting [19]), “+9.62 °C”; in [9] (PtGSTU19 20 µM, compound 100 µM, vs DMSO reference, flavonoid set (Table S3, Figure 4)) it was 4.99 ± 0.28 °C; in [9] (setting [20]) it was “+8.39 °C”.
Regarding oxidized glutathione [GSSG], the “ΔTd (denaturation temperature difference)” value in experiment [8] (setting [19]) and in [9] (setting [20]) was “little or no change” throughout.
